{
  "source": "ChEMBL document CHEMBL4649987",
  "about": "“Benzoisoquinolinediones as Potent and Selective Inhibitors of BRPF2 and TAF1/TAF1L Bromodomains” (ACS Chem Biol, 2017)",
  "key": {"[1]": {"target": "E3 ubiquitin-protein ligase TRIM33 (Homo sapiens) (UniProt Q9UPN9)", "conditions": "Compound concentration […], Protein concentration 200.0 uM"}, "[2]": {"target": "Histone-lysine N-methyltransferase ASH1L (Homo sapiens) (UniProt Q9NR48)", "conditions": "Compound concentration 10.0 uM, Protein concentration 2.0 uM"}, "[3]": {"target": "ATPase family AAA domain-containing protein 2 (Homo sapiens) (UniProt Q6PL18)", "conditions": "Compound concentration 10.0 uM, Protein concentration 2.0 uM"}, "[4]": {"target": "ATPase family AAA domain-containing protein 2B (Homo sapiens) (UniProt Q9ULI0)", "conditions": "Compound concentration 10.0 uM, Protein concentration 2.0 uM"}, "[5]": {"target": "Bromodomain adjacent to zinc finger domain protein 1A (Homo sapiens) (UniProt Q9NRL2)", "conditions": "Compound concentration 10.0 uM, Protein concentration 2.0 uM"}, "[6]": {"target": "Tyrosine-protein kinase BAZ1B (Homo sapiens) (UniProt Q9UIG0)", "conditions": "Compound concentration 10.0 uM, Protein concentration 2.0 uM"}, "[7]": {"target": "Bromodomain adjacent to zinc finger domain protein 2A (Homo sapiens) (UniProt Q9UIF9)", "conditions": "Compound concentration 10.0 uM, Protein concentration 2.0 uM"}, "[8]": {"target": "Bromodomain adjacent to zinc finger domain protein 2B (Homo sapiens) (UniProt Q9UIF8)", "conditions": "Compound concentration 10.0 uM, Protein concentration 2.0 uM"}, "[9]": {"target": "Nucleosome-remodeling factor subunit BPTF (Homo sapiens) (UniProt Q12830)", "conditions": "Compound concentration 10.0 uM, Protein concentration 2.0 uM"}, "[10]": {"target": "Bromodomain-containing protein 2 (Homo sapiens) (UniProt P25440)", "sequence (P25440 whole entry, looked up)": "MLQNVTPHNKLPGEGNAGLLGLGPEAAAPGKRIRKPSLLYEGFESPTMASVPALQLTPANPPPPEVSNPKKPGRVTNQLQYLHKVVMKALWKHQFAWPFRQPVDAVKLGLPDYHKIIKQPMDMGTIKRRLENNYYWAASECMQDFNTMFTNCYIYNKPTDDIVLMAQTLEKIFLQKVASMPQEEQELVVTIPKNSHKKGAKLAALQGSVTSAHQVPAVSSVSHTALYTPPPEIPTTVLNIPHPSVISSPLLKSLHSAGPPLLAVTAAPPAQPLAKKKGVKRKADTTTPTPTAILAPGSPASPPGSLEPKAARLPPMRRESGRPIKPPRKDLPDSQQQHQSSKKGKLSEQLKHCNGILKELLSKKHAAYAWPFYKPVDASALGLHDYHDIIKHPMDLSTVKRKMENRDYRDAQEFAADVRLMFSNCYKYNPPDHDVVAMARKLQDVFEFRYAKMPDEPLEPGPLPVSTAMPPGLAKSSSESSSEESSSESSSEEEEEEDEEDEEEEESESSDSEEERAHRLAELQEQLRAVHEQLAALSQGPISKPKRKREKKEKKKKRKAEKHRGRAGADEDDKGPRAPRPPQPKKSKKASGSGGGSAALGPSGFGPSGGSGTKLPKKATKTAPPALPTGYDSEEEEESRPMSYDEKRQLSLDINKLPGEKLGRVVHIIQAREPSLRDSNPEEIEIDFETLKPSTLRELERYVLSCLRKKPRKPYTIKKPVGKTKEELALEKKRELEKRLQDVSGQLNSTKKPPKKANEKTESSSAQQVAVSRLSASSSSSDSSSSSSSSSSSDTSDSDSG", "conditions": "Compound concentration 10.0 uM, Protein concentration 2.0 uM"}, "[11]": {"target": "Bromodomain-containing protein 2 (Homo sapiens) (UniProt P25440)", "conditions": "Compound concentration 10.0 uM, Protein concentration 2.0 uM", "remark": "listed apart in the source"}, "[12]": {"target": "Bromodomain-containing protein 3 (Homo sapiens) (UniProt Q15059)", "sequence (Q15059 2-726 limits assumed)": "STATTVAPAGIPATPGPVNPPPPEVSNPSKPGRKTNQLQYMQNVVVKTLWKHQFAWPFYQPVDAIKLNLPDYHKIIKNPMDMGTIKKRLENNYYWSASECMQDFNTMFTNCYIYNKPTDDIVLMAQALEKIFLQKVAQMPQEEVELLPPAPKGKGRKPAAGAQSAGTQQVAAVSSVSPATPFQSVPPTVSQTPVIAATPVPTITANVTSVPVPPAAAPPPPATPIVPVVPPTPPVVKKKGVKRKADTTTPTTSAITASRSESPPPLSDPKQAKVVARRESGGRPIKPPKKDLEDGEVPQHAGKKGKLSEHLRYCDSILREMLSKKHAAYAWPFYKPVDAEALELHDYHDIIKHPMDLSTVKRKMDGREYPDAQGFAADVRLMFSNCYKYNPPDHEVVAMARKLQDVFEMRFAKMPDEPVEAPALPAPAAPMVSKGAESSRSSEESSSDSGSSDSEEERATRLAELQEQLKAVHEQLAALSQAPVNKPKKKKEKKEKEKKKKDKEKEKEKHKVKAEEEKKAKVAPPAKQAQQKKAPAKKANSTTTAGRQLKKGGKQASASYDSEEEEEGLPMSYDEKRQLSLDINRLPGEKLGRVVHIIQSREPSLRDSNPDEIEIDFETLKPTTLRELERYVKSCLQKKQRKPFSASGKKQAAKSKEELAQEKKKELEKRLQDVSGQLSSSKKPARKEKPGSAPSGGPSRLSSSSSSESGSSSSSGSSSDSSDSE", "conditions": "Compound concentration 10.0 uM, Protein concentration 2.0 uM"}, "[13]": {"target": "Bromodomain-containing protein 3 (Homo sapiens) (UniProt Q15059)", "conditions": "Compound concentration 10.0 uM, Protein concentration 2.0 uM", "remark": "listed apart in the source"}, "[14]": {"target": "Bromodomain-containing protein 4 (Homo sapiens) (UniProt O60885)", "conditions": "Compound concentration 10.0 uM, Protein concentration 2.0 uM"}, "[15]": {"target": "Bromodomain-containing protein 7 (Homo sapiens) (UniProt Q9NPI1)", "conditions": "Compound concentration 10.0 uM, Protein concentration 2.0 uM"}, "[16]": {"target": "Bromodomain-containing protein 9 (Homo sapiens) (UniProt Q9H8M2)", "conditions": "Compound concentration 10.0 uM, Protein concentration 2.0 uM"}, "[17]": {"target": "Bromodomain testis-specific protein (Homo sapiens) (UniProt Q58F21)", "conditions": "Compound concentration 10.0 uM, Protein concentration 2.0 uM"}, "[18]": {"target": "Bromodomain testis-specific protein (Homo sapiens) (UniProt Q58F21)", "conditions": "Compound concentration 10.0 uM, Protein concentration 2.0 uM", "remark": "listed apart in the source"}, "[19]": {"target": "Bromodomain and PHD finger-containing protein 3 (Homo sapiens) (UniProt Q9ULD4)", "conditions": "Compound concentration 10.0 uM, Protein concentration 2.0 uM"}, "[20]": {"target": "Bromodomain and WD repeat-containing protein 3 (Homo sapiens) (UniProt Q6RI45)", "conditions": "Compound concentration 10.0 uM, Protein concentration 2.0 uM"}, "[21]": {"target": "Histone acetyltransferase p300 (Homo sapiens) (UniProt Q09472)", "conditions": "Compound concentration 10.0 uM, Protein concentration 2.0 uM"}, "[22]": {"target": "Histone acetyltransferase KAT2A (Homo sapiens) (UniProt Q92830)", "conditions": "Compound concentration 10.0 uM, Protein concentration 2.0 uM"}, "[23]": {"target": "Histone acetyltransferase KAT2B (Homo sapiens) (UniProt Q92831)", "conditions": "Compound concentration 10.0 uM, Protein concentration 2.0 uM"}, "[24]": {"target": "Histone-lysine N-methyltransferase 2A (Homo sapiens) (UniProt Q03164)", "conditions": "Compound concentration 10.0 uM, Protein concentration 2.0 uM"}, "[25]": {"target": "Protein polybromo-1 (Homo sapiens) (UniProt Q86U86)", "sequence (Q86U86 whole entry)": "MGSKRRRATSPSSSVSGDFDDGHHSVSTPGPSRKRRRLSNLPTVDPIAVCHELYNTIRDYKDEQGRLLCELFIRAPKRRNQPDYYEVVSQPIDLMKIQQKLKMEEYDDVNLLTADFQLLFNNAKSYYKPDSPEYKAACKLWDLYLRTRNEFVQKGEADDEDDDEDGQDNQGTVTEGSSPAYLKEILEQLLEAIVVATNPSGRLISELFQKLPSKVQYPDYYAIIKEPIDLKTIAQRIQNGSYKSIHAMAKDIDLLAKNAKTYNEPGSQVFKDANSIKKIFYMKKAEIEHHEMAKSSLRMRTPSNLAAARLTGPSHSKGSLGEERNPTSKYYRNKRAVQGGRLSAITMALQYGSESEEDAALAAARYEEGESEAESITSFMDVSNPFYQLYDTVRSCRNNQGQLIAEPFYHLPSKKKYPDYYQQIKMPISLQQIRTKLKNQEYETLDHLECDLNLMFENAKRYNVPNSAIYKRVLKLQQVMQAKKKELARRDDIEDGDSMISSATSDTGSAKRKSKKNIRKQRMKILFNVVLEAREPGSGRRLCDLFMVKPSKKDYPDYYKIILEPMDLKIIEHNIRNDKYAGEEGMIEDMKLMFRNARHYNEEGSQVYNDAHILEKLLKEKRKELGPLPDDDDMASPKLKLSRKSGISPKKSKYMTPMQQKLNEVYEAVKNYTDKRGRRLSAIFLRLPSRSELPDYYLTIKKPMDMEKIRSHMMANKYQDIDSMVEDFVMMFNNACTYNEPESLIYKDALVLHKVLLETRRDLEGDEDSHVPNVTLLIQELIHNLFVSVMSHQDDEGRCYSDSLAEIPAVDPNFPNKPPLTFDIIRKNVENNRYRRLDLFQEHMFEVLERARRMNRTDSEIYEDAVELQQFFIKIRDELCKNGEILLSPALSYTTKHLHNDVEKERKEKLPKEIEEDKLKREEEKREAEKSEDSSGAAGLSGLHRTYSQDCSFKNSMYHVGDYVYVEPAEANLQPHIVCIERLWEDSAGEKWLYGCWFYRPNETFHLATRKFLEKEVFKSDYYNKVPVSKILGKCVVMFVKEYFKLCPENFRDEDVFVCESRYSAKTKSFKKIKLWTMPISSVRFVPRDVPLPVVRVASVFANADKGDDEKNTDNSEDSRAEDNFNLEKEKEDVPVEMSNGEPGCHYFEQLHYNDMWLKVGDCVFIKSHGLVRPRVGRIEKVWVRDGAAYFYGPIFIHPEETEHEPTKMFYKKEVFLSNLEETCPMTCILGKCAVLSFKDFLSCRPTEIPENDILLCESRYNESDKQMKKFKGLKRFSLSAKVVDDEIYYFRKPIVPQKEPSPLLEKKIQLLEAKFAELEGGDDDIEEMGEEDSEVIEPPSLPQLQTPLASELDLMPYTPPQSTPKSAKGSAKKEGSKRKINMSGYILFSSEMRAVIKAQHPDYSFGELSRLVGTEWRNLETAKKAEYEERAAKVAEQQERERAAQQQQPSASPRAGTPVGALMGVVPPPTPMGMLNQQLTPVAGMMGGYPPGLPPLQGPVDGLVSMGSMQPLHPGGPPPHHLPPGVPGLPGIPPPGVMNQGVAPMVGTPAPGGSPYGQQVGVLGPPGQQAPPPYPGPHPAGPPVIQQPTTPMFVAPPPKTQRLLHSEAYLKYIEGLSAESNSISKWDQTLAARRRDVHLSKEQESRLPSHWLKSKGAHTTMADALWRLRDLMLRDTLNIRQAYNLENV", "conditions": "Compound concentration 10.0 uM, Protein concentration 2.0 uM"}, "[26]": {"target": "Protein polybromo-1 (Homo sapiens) (UniProt Q86U86)", "conditions": "Compound concentration 10.0 uM, Protein concentration 2.0 uM", "remark": "listed apart in the source"}, "[27]": {"target": "Protein polybromo-1 (Homo sapiens) (UniProt Q86U86)", "conditions": "Compound concentration 10.0 uM, Protein concentration 2.0 uM", "remark": "listed apart in the source"}, "[28]": {"target": "Protein polybromo-1 (Homo sapiens) (UniProt Q86U86)", "conditions": "Compound concentration 10.0 uM, Protein concentration 2.0 uM", "remark": "listed apart in the source"}, "[29]": {"target": "Protein polybromo-1 (Homo sapiens) (UniProt Q86U86)", "conditions": "Compound concentration 10.0 uM, Protein concentration 2.0 uM", "remark": "listed apart in the source"}, "[30]": {"target": "Protein polybromo-1 (Homo sapiens) (UniProt Q86U86)", "conditions": "Compound concentration 10.0 uM, Protein concentration 2.0 uM", "remark": "listed apart in the source"}, "[31]": {"target": "PH-interacting protein (Homo sapiens) (UniProt Q8WWQ0)", "conditions": "Compound concentration 10.0 uM, Protein concentration 2.0 uM"}, "[32]": {"target": "SWI/SNF-related matrix-associated actin-dependent regulator of chromatin subfamily A member 2 (Homo sapiens) (UniProt P51531)", "conditions": "Compound concentration 10.0 uM, Protein concentration 2.0 uM"}, "[33]": {"target": "SWI/SNF-related matrix-associated actin-dependent regulator of chromatin subfamily A member 4 (Homo sapiens) (UniProt P51532)", "conditions": "Compound concentration 10.0 uM, Protein concentration 2.0 uM"}, "[34]": {"target": "Nuclear body protein SP140 (Homo sapiens) (UniProt Q13342)", "conditions": "Compound concentration 10.0 uM, Protein concentration 2.0 uM"}, "[35]": {"target": "Nuclear body protein SP140-like protein (Homo sapiens) (UniProt Q9H930)", "conditions": "Compound concentration 10.0 uM, Protein concentration 2.0 uM"}, "[36]": {"target": "Transcription initiation factor TFIID subunit 1 (Homo sapiens) (UniProt P21675)", "sequence (P21675 whole entry)": "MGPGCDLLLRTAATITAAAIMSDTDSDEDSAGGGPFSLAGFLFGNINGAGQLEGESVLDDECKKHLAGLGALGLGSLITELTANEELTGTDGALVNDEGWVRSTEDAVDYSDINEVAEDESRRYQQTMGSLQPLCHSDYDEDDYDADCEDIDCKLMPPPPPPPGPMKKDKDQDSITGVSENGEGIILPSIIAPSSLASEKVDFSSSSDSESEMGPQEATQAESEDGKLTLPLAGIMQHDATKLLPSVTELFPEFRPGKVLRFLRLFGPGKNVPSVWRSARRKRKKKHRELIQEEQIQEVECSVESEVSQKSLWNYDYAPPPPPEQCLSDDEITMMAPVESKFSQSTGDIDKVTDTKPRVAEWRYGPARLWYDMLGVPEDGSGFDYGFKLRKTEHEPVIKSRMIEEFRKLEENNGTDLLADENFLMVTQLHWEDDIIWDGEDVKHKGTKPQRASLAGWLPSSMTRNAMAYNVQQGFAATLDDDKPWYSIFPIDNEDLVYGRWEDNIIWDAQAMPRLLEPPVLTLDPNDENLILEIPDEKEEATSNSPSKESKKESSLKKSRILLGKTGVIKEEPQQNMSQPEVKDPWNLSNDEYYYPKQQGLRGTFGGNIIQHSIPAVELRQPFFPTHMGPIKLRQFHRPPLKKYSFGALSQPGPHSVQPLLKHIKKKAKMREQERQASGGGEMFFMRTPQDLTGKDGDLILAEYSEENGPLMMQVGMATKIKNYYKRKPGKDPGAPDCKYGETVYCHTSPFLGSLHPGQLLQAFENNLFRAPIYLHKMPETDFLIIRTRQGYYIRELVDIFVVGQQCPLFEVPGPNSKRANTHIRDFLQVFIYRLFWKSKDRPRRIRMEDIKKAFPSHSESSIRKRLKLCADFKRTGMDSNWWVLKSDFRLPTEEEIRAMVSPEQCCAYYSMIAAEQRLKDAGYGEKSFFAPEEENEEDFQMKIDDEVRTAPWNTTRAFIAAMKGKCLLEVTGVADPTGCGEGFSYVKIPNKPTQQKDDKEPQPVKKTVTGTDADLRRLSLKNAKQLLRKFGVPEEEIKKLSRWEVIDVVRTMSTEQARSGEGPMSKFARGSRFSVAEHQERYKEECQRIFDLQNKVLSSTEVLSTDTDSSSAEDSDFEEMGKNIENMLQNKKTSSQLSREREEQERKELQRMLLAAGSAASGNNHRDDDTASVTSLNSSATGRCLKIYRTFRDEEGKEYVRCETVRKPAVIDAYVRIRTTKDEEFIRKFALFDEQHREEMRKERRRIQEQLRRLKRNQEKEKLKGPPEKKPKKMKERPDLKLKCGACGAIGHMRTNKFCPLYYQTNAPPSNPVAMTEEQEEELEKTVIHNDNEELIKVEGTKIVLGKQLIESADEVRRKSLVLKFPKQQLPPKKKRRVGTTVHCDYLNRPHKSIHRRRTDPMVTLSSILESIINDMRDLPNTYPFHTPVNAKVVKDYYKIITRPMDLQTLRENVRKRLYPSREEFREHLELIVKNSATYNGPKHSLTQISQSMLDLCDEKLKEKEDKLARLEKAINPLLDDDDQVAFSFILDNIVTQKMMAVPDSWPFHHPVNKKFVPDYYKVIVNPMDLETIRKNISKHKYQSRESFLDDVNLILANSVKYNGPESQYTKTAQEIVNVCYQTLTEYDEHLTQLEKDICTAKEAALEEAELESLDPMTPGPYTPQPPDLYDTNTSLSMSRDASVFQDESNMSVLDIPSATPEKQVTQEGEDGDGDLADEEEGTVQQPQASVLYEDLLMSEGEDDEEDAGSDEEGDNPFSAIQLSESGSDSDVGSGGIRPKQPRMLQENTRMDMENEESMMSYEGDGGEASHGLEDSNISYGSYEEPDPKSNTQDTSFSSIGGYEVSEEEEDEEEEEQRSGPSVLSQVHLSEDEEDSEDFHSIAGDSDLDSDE", "conditions": "Compound concentration 10.0 uM, Protein concentration 2.0 uM"}, "[37]": {"target": "Transcription initiation factor TFIID subunit 1 (Homo sapiens) (UniProt P21675)", "conditions": "Compound concentration 10.0 uM, Protein concentration 2.0 uM", "remark": "listed apart in the source"}, "[38]": {"target": "Transcription initiation factor TFIID subunit 1-like (Homo sapiens) (UniProt Q8IZX4)", "conditions": "Compound concentration 10.0 uM, Protein concentration 2.0 uM"}, "[39]": {"target": "Transcription initiation factor TFIID subunit 1-like (Homo sapiens) (UniProt Q8IZX4)", "conditions": "Compound concentration 10.0 uM, Protein concentration 2.0 uM", "remark": "listed apart in the source"}, "[40]": {"target": "Transcription intermediary factor 1-alpha (Homo sapiens) (UniProt O15164)", "conditions": "Compound concentration 10.0 uM, Protein concentration 2.0 uM"}, "[41]": {"target": "Transcription intermediary factor 1-beta (Homo sapiens) (UniProt Q13263)", "conditions": "Compound concentration 10.0 uM, Protein concentration 2.0 uM"}, "[42]": {"target": "Bromodomain-containing protein 4 (Homo sapiens) (UniProt O60885)", "conditions": "Compound concentration 10.0 uM, Protein concentration 2.0 uM", "remark": "listed apart in the source"}, "[43]": {"target": "Transcription intermediary factor 1-alpha (Homo sapiens) (UniProt O15164)", "conditions": "Compound concentration 10.0 uM, Protein concentration 2.0 uM", "remark": "listed apart in the source"}},
  "note": "Several values for one entry are separate records, joined by “and”; a condition that tells them apart may be missing. Equal values may be shown once.",
  "data": [
    {"molecule": "COc1ccccc1C(=O)Nc1cc2c(cc1N1CCCC1)n(C)c(=O)n2C", "values": [
      {"measurement": "inhibition", "setting": "[1]", "value": 35.5, "unit": "%"},
      {"measurement": "ΔTm", "setting": "[2]", "value": 0.36, "unit": "°C"},
      {"measurement": "ΔTm", "setting": "[3]", "value": -0.03, "unit": "°C"},
      {"measurement": "ΔTm", "setting": "[4]", "value": -0.04, "unit": "°C"},
      {"measurement": "ΔTm", "setting": "[5]", "value": 0.5, "unit": "°C"},
      {"measurement": "ΔTm", "setting": "[6]", "value": -0.03, "unit": "°C"},
      {"measurement": "ΔTm", "setting": "[7]", "value": 0.5, "unit": "°C"},
      {"measurement": "ΔTm", "setting": "[8]", "value": 0.88, "unit": "°C"},
      {"measurement": "ΔTm", "setting": "[9]", "value": 0.31, "unit": "°C"},
      {"measurement": "ΔTm", "setting": "[10]", "value": 0.75, "unit": "°C"},
      {"measurement": "ΔTm", "setting": "[11]", "value": 0.74, "unit": "°C"},
      {"measurement": "ΔTm", "setting": "[12]", "value": 0.33, "unit": "°C"},
      {"measurement": "ΔTm", "setting": "[13]", "value": 0.74, "unit": "°C"},
      {"measurement": "ΔTm", "setting": "[14]", "value": 0.33, "unit": "°C"},
      {"measurement": "ΔTm", "setting": "[15]", "value": 3.84, "unit": "°C"},
      {"measurement": "ΔTm", "setting": "[16]", "value": 1.21, "unit": "°C"},
      {"measurement": "ΔTm", "setting": "[17]", "value": 0.27, "unit": "°C"},
      {"measurement": "ΔTm", "setting": "[18]", "value": 0.18, "unit": "°C"},
      {"measurement": "ΔTm", "setting": "[19]", "value": "2.36 °C and 1.34 °C"},
      {"measurement": "ΔTm", "setting": "[20]", "value": -0.2, "unit": "°C"},
      {"measurement": "ΔTm", "setting": "[21]", "value": 0.9, "unit": "°C"},
      {"measurement": "ΔTm", "setting": "[22]", "value": 0.21, "unit": "°C"},
      {"measurement": "ΔTm", "setting": "[23]", "value": 2.09, "unit": "°C"},
      {"measurement": "ΔTm", "setting": "[24]", "value": 0.13, "unit": "°C"},
      {"measurement": "ΔTm", "setting": "[25]", "value": 0.26, "unit": "°C"},
      {"measurement": "ΔTm", "setting": "[26]", "value": -0.44, "unit": "°C"},
      {"measurement": "ΔTm", "setting": "[27]", "value": 0.54, "unit": "°C"},
      {"measurement": "ΔTm", "setting": "[28]", "value": 0.73, "unit": "°C"},
      {"measurement": "ΔTm", "setting": "[29]", "value": -0.35, "unit": "°C"},
      {"measurement": "ΔTm", "setting": "[30]", "value": 0.03, "unit": "°C"},
      {"measurement": "ΔTm", "setting": "[31]", "value": 0.71, "unit": "°C"},
      {"measurement": "ΔTm", "setting": "[32]", "value": 0.18, "unit": "°C"},
      {"measurement": "ΔTm", "setting": "[33]", "value": 0.2, "unit": "°C"},
      {"measurement": "ΔTm", "setting": "[34]", "value": 0.2, "unit": "°C"},
      {"measurement": "ΔTm", "setting": "[35]", "value": -0.24, "unit": "°C"},
      {"measurement": "ΔTm", "setting": "[36]", "value": 0.9, "unit": "°C"},
      {"measurement": "ΔTm", "setting": "[37]", "value": 0.33, "unit": "°C"},
      {"measurement": "ΔTm", "setting": "[38]", "value": 0.31, "unit": "°C"},
      {"measurement": "ΔTm", "setting": "[39]", "value": 0.79, "unit": "°C"},
      {"measurement": "ΔTm", "setting": "[40]", "value": 1.35, "unit": "°C"},
      {"measurement": "ΔTm", "setting": "[41]", "value": -0.53, "unit": "°C"},
      {"measurement": "ΔTm", "setting": "[42]", "value": 1.37, "unit": "°C"},
      {"measurement": "ΔTm", "setting": "[43]", "value": 0.72, "unit": "°C"}
    ]}
  ]
}
